# Assay results as given in PMC4161155 (Journal of Medicinal Chemistry, 2014).
# Assays:
# rNTS2 receptor [1] = target: T1, rNTS2 receptor (Rattus norvegicus, UniProt Q63384); test: NTS2 FLIPR calcium mobilization assay, agonist mode; assay type: cell-based; details: for agonist behaviour in the NTS2 FLIPR assay (calcium release): CHO cell line stably expressing rNTS2, FLIPR Tetra, pilot study
# T1 sequence (Q63384 1-416): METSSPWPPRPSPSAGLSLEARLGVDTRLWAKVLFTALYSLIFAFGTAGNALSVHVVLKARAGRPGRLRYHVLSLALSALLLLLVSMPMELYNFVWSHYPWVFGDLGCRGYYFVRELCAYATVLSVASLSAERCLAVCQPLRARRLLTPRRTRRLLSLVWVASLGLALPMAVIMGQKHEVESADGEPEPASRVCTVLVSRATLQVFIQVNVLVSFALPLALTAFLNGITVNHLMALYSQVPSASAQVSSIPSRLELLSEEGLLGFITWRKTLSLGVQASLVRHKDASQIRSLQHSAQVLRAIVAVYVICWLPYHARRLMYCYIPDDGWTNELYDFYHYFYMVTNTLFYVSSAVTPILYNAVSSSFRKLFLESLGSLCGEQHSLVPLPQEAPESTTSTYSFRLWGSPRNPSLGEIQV
# rNTS2 receptor [2] = target: T1, rNTS2 receptor; test: Competitive binding assay versus [125I]NT at NTS2; details: ratio of Ki values, versus compound 13
# rNTS2 receptor [3] = target: T1, rNTS2 receptor; test: NTS2 FLIPR calcium mobilization assay, antagonist mode; assay type: cell-based; details: for type of antagonism of 3b in the Ke experiment at NTS2: Ke assays against dose-response curves of control agonist 3b
# NTS1 = NTS1 (Rattus norvegicus, UniProt P20789); test: NTS1 FLIPR assay; assay type: cell-based; details: data not shown
# Sequence of NTS1 (P20789 whole entry): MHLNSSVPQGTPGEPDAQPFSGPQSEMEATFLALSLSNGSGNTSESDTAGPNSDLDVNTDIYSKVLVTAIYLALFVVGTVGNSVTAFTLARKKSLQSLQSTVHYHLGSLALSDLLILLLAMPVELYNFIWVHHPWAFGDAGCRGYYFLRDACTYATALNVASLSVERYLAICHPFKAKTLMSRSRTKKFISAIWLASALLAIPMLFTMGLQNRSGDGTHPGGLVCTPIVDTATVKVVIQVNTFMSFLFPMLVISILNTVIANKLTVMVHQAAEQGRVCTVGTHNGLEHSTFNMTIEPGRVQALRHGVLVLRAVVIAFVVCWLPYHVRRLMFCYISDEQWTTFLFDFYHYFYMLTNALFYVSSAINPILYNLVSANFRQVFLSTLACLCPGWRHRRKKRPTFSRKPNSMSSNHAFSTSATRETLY
SMILES,agonist behaviour in the NTS2 FLIPR assay (calcium release) (rNTS2 receptor [1]),type of antagonism of 3b in the Ke experiment at NTS2 (rNTS2 receptor [3]),activity in the NTS1 FLIPR assay (NTS1),also measured
COc1cccc(OC)c1-c1cc(C(=O)NC2(C(=O)O)C3CC4CC(C3)CC2C4)nn1-c1ccc(C(=O)N(C)CCCN(C)C)cc1C(C)C (stereo not shown) [3b],full agonists,,,
COc1cccc(OC)c1-c1cc(C(=O)NC2(C(=O)O)C3CC4CC(C3)CC2C4)nn1-c1ccnc2cc(Cl)ccc12 (stereo not shown) [3a],full agonists,,,
"C[C@@H]1CN([C@H]2CC[C@](C#N)(c3ccc(F)cc3)CC2)CC[C@]1(C(=O)O)c1ccccc1 [Levocabastine, levocabastine]",potent partial agonist activity,,,Emax (rNTS2 receptor [1]; read-out: FLIPR assay NTS2 Emax): 14 to 16%
"Cc1ccc(S(=O)(=O)Nc2ccc3c(c2)c(C(=O)C(F)(F)F)cn3CC(=O)N[C@@H](CC(C)C)C(=O)O)cc1 [compound 5, N-{[5-{[(4-Methylphenyl)sulfonyl]amino}-3-(trifluoroacetyl)-1H-indol-1-yl]acetyl}-L-leucine]",,insurmountable antagonist activity,Neither of the test compounds (5 or 13) showed activity,"fold boost to NTS2 binding affinity versus 13 (rNTS2 receptor [2]): 7.5 fold; fold more active than 13 in the NTS2 FLIPR assay (antagonist activity) (rNTS2 receptor [3]; ratio of IC50 values, versus compound 13): 90 fold; fold more active than NT in the NTS2 FLIPR assay (rNTS2 receptor [3]; ratio of IC50 values, versus endogenous ligand NT): ~3 fold"
"Cc1ccc(S(=O)(=O)Nc2ccc3c(ccn3CC(=O)N[C@@H](CC(C)C)C(=O)O)c2)cc1 [compound 13, N-[(5-{[(4-Methylphenyl)sulfonyl]amino}-1H-indol-1-yl)acetyl]-L-leucine]",,insurmountable,Neither of the test compounds (5 or 13) showed activity,NTS2 agonist activity in library screen (rNTS2 receptor [1]; single concentration 10 μM): devoid of NTS2 agonist activity; activity at NTS1 in library screen (NTS1; single concentration 10 μM): no activity at NTS1
